Literature values, collected in US20050266409A1, “Compositions and methods for diagnosing, preventing, and treating cancers” (priority 2003, published 2005).

Columns and labels:
[1] = tested on: tumor cells; conditions: read-out: 50% growth inhibition of tumor cells
[2] = tested on: lymphoid, myeloid, colon, and prostate cancer cells; conditions: prostate cancer xenografts in nude mice

IC50 [1]: 60 nM
Structure (SMILES): CN1CC[C@H](c2c(O)cc(O)c3c(=O)cc(-c4ccccc4Cl)oc23)[C@H](O)C1 [Flavopiridol]
inhibition of cancer cells grown in vivo as tumor xenografts [2]: inhibits
